In patent publication US20220267310A1, “QUINAZOLINE AND CINNOLINE DERIVATIVES AS DNA-PK INHIBITOR” (MEDSHINE DISCOVERY INC., priority 2019, published 2022):
Values joined by “and” are separate entries in the source; they are usually repeats but may differ in a detail not shown here. Equal entries are not always repeated.

Key:
[1] = test system: human small cell lung cancer NCI-H69 cell subcutaneous xenograft tumor; assay: NCI-H69 subcutaneous xenograft, combination with etoposide, 22-day experiment (Table 7); assay type: in vivo, BALB/c nude mice
Procedure: Experiment example 3: in vivo pharmacodynamics of human small cell lung cancer NCI-H69 cell subcutaneous xenograft tumor BALB/c nude mouse model:
Experimental animals: Female BALB/c nude mice, 6-8 weeks old, weighing 15-22 grams; supplier: Shanghai Linchang Biotechnology Co., LTD. (Linchang, Shanghai)
Human small cell lung cancer NCI-H69 cells (ATCC, item number: HTB-119 and ECACC-95111733) were cultured in vitro in a culture condition of RPMI-1640 medium with 10% fetal bovine serum, 100 U/mL penicillin and 100 μg/mL streptomycin, incubated at 37° C. and 5% CO2. Conventional passage was carried out twice a week. When cell saturation was 80%-90% and the number reaches the requirement, cells were collected, counted and inoculated.
0.2 mL (10×10^6) NCI-H69 cells (with matrix glue, and volume ratio of 1:1) were subcutaneously inoculated into a right back of each mouse, and group administration was initiated when the average tumor volume reaches about 110-120 mm^3.
The tested compound was prepared as a 5 mg/mL clarified solution with 10% DMSO+50% polyethylene glycol 400+40% water as the solvent.
The experimental indicators refers to study whether tumor growth was inhibited, delayed, or cured. Tumor diameter was measured twice a week with a vernier caliper. The calculation formula of the tumor volume was V=0.5a×b^2, and a and b represent the long diameter and short diameter of the tumor, respectively.
The antitumor efficacy of the compound was evaluated by TGI (%) or relative tumor proliferation rate T/C (%). TGI (%) reflects the tumor growth inhibition rate. The calculation of TGI (%): TGI (%)=[1−(average tumor volume at the end of administration of a certain treatment group−average tumor volume at the beginning of administration of the treatment group)/(average tumor volume at the end of treatment in solvent control group−average tumor volume at the beginning of treatment in solvent control group)]×control group.
Relative tumor proliferation rate T/C (%): the calculation formula was as follows: T/C %=[…] TRTV/CRTV group (TRTV: treatment group RTV; CRTV: negative control group RTV). According to results of tumor measurement, Relative Tumor Volume (RTV) was calculated by the formula RTV=Vt/V0, where V0 was the average tumor volume measured in group administration (i.e., d0), and Vt was the average tumor volume measured in a certain single measurement. TRTV and CRTV collect data on the same day.
Statistic analysis includes an average value and a standard error (SEM) of tumor volume at each time point for each group. […] If there was no significant difference in F value, Dunnet (2-sided) method was applied to analysis. All data were analyzed using SPSS 17.0. P<0.05 was considered as having a significant difference.

PI3K (p110σ/p85α) = target: T1, PI3K (p110σ/p85α) (Homo sapiens, UniProt O00329); assay: PI3K (p110σ/p85α) kinase inhibitory activity (HTRF); assay type: biochemical
T1 construct: Eurofins Pharma Discovery Service (contract assay)

[2] = Pharmacokinetic evaluation in mice, IV and PO; assay type: in vivo, Balb/c female mice
Procedure: The tested compound was mixed with 10% DMSO/50% PEG400/40% water, vortexized and ultrasonic to prepare 0.2 mg/mL or 0.4 mg/ml, approximately clarified solution, which was filtered by a microporous membrane and then standby. Balb/c female mice of 18-20 g were selected and given the candidate compound solution intravenously at a dose of 1 or 2 mg/kg. The tested compound was mixed with 10% DMSO/50% PEG400/40% water, vortexized and ultrasonic to prepare 0.2 mg/mL or 1 mg/mL approximately clarified solution, which was filtered by a microporous membrane and then standby. Balb/c female mice of 18 to 20 g were selected and given orally the candidate compound solution at a dose of 2 or 10 mg/kg. Whole blood was collected for a certain period of time, and plasma was prepared. Drug concentration was analyzed by LC-MS/MS method, and pharmacokinetic parameters were calculated by Phoenix WinNonlin software (US Pharsight company).
C0: instantaneous concentration required after intravenous injection; Cmax: the highest blood concentration after administration; Tmax: time required to reach peak concentration after administration; T1/2: the time required for blood drug concentration to decrease by half; Vdss: apparent volume of distribution, which refers to the ratio constant of drug dosage to blood concentration when a drug reaches dynamic equilibrium in vivo. Cl: clearance rate, referring to drug apparent distribution volume number removed from the body per unit time; Tlast: time of last detection point: AUC0-last: an area under a drug duration curve, referring to an area surrounded by the blood drug concentration curve on the time axis; Bioavailability: a measure of the rate and extent of drug absorption into the blood circulation, which was an important index to evaluate drug absorption degree.

DNA-PK (h) = target: T2, DNA-PK (h) (Homo sapiens, UniProt P78527); assay: DNA-PK kinase inhibitory activity (HTRF, Eurofins); assay type: biochemical; conditions: ATP: 10 μM
T2 construct: Eurofins Pharma Discovery Service (contract assay)
Procedure: (§1) This experiment was tested at Eurofins Pharma Discovery Service, Reaction Biology Corp. (RBC)
(§2) […] DNA-PK: Mg/ATP; GST-cMyc-p53; EDTA; Ser15 antibody; ATP: 10 μM; biotinylated phosphatidylinositol-3,4,5-triphosphate; GST label GRP1 PH domain; streptavidin and phycocyanin; europium-labelled monoclonal antibody against GST.
DNA-PK (h) was incubated in a determination buffer containing 50 nM GST-cMyc-p53 and Mg/ATP (density as required). The reaction was initiated by adding a mixture of Mg/ATP. After incubating at room temperature for 30 min, a termination solution containing EDTA was added to terminate the reaction. Finally, a detection buffer (containing labeled anti-GST monoclonal antibody and europium-labeled anti-phosphate Ser15 antibody against phosphorylated p53) was added. Then, the board was read in time-resolved fluorescence mode, and a Homogeneous Time Resolved Fluorescence (HTRF) signal was measured according to the formula HTRF=10000×(Em665 nm/Em620 nm).

PI3K (p110α/p85α) = target: T3, PI3K (p110α/p85α) (Homo sapiens, UniProt P42336); assay: PI3K (p110α/p85α) kinase inhibitory activity (HTRF); assay type: biochemical
T3 construct: Eurofins Pharma Discovery Service (contract assay)
Procedure: as §1, §2
PI3K (p110α/p85α) was incubated in a determination buffer containing phosphatidylinositol 4,5-diphosphate and Mg/ATP (density as required). The reaction was initiated by adding an ATP solution. After incubating at room temperature for 30 min, a termination solution containing EDTA and biotinylated phosphatidylinositol-3,4,5-triphosphate was added to terminate the reaction. Finally, a detection buffer (containing labeled anti-GST monoclonal antibody, PH domain of GRP1 with GST label and streptavidin and phycyanin and […]) was added. Then, the board was read in time-resolved fluorescence mode, and an HTRF signal was measured according to the formula HTRF=10000×(Em665 nm/Em620 nm).

[3] = 40 mg/kg, PO, QD + etoposide 10 mg/kg, IP, 3-day administration, 4-day withdrawal, 22nd day
[4] = 40 mg/kg, PO, QD + etoposide 10 mg/kg, IP, 3-day administration, 4-day withdrawal, average ± SEM

T1 sequence (O00329 whole entry): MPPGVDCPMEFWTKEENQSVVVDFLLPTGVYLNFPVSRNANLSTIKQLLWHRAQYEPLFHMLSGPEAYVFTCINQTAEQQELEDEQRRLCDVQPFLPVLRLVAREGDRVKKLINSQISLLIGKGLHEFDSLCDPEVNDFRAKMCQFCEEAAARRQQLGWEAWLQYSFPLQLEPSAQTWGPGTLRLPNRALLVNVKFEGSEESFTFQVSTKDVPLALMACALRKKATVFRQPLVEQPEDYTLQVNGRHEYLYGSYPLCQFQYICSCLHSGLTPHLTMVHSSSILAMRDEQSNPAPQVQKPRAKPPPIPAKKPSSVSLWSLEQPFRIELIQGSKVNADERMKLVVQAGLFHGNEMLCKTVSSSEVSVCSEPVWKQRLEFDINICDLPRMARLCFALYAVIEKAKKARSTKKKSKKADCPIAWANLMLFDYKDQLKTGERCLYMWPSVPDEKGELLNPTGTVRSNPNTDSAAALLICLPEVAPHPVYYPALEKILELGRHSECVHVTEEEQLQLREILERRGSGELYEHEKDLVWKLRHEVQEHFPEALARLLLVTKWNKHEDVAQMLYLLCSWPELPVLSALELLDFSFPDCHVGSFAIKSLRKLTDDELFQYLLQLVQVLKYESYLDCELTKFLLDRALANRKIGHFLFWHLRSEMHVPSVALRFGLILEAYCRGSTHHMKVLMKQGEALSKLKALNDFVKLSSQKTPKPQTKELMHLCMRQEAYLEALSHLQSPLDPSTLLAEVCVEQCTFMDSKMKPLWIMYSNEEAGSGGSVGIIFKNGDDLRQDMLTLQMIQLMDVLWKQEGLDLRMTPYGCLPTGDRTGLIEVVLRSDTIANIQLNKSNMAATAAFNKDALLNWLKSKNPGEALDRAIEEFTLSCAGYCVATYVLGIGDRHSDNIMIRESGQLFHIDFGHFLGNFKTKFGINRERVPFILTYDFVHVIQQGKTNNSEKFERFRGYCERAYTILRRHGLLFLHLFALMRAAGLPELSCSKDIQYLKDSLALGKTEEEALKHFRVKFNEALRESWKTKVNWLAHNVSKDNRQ
T1 sequence (P27986 whole entry partner): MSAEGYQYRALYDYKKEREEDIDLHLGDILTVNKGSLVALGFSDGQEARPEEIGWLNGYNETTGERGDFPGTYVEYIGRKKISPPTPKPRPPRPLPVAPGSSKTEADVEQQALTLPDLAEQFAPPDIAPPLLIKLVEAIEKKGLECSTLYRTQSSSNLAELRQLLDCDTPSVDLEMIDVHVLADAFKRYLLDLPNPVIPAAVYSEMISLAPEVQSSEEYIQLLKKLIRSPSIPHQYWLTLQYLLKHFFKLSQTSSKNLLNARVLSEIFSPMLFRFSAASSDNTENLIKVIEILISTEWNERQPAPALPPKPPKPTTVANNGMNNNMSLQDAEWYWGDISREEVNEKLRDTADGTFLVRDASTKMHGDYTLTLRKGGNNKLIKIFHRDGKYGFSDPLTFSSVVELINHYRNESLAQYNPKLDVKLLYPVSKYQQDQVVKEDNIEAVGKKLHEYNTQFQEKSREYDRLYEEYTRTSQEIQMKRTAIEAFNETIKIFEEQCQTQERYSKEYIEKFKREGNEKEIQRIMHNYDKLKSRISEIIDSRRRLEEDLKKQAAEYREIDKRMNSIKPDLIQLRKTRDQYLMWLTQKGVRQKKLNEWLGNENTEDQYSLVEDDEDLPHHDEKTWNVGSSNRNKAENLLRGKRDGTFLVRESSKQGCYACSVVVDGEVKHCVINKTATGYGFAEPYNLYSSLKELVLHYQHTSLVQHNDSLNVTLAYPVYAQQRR
T3 sequence (P42336 whole entry, species assumed): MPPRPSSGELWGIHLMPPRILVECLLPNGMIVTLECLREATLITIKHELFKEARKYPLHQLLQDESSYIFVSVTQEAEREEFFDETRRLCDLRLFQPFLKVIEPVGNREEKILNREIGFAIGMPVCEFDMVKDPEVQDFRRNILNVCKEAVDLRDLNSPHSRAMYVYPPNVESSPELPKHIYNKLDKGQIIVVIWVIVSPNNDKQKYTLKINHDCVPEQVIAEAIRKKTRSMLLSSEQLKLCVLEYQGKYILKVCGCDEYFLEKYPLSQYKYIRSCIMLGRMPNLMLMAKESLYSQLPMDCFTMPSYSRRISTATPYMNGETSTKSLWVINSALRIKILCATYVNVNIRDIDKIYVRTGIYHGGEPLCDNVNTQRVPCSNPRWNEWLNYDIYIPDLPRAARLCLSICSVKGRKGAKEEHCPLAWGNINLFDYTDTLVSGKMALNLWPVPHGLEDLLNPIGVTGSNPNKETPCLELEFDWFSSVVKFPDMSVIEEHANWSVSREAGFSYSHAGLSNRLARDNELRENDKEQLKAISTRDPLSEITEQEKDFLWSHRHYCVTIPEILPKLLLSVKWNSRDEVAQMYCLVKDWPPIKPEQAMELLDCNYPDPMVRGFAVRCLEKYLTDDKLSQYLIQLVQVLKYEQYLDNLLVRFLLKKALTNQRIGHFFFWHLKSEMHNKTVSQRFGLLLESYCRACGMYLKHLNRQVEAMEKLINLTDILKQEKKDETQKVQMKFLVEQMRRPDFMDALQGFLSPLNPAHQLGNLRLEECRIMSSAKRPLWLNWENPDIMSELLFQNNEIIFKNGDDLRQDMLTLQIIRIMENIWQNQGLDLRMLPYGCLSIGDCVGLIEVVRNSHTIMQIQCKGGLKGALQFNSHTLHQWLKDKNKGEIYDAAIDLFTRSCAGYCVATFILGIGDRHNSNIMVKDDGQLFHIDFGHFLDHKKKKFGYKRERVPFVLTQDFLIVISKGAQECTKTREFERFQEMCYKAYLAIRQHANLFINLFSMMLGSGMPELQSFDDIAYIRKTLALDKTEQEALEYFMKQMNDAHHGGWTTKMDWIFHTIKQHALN
T3 sequence (P27986 whole entry partner, species assumed): as the sequence (P27986 whole entry partner) above

COc1ccc(C(O)c2cc(-c3ccnc4cc(N5CCOCC5)ccc34)c(F)cc2Cl)nn1 (single isomer, unassigned) [Embodiment 2]
Weight changes ([1]; 40 mg/kg group (+ etoposide 10 mg/kg, IP)): −16.66%
RTV (22th day) ([1]; 40 mg/kg, PO, QD + etoposide 10 mg/kg, IP, 3-day administration, 4-day withdrawal): 1.84
T/C (%) [1, 3]: 21.37%
TGI (%) [1, 3]: 89% and 88.96%
Tumor volume (mm^3) (0th day) [1, 4]: 119 ± 13 mm^3
Tumor volume (mm^3) (22th day) [1, 4]: 219 ± 44 mm^3
IC50 (PI3K (p110σ/p85α)): 13 nM
AUC0-last ([2]; IV(2 mg/kg), mouse plasma): 3.354 µM·h
C0 ([2]; IV(2 mg/kg), mouse plasma): 1810 nM
Cl ([2]; IV(2 mg/kg), mouse plasma): 20.3 mL/min/kg
T1/2 ([2]; IV(2 mg/kg), mouse plasma): 1.33 h
Tlast ([2]; IV(2 mg/kg), mouse plasma): 8.00 h
Vdss ([2]; IV(2 mg/kg), mouse plasma): 2.25 L/kg
Bioavailability (%) ([2]; PO(10 mg/kg), mouse): 60.8%
AUC0-last ([2]; PO(10 mg/kg), mouse plasma): 9.073 µM·h
Cmax ([2]; PO(10 mg/kg), mouse plasma): 2520 nM
T1/2 ([2]; PO(10 mg/kg), mouse plasma): 2.47 h
Tlast ([2]; PO(10 mg/kg), mouse plasma): 8.00 h
Tmax ([2]; PO(10 mg/kg), mouse plasma): 1.00 h
IC50 (DNA-PK (h)): 0.5 nM
IC50 (PI3K (p110α/p85α)): 39 nM
